Measurements from ChEMBL document CHEMBL4196029, “New MD2 inhibitors derived from curcumin with improved anti-inflammatory activity” (Eur J Med Chem, 2018).
Calls of active or inactive are those of the source. The calls are words filed in the database; no cut-off is given here.

How the values were obtained:
[1] = test system: Peritoneal macrophage; assay: Anti-inflammatory activity in C57BL/6 mouse primary peritoneal macrophages assessed as inhibition of LPS-induced IL-6 secretion at 10 uM preincubated for 30 mins followed by LPS addition measured after 24 hrs by ELISA relative to control; format: functional; details: for inhibition at 10 µM: C57BL/6, Peritoneal macrophage
[2] = test system: Peritoneal macrophage; assay: Anti-inflammatory activity in C57BL/6 mouse primary peritoneal macrophages assessed as inhibition of LPS-induced TNFalpha secretion at 10 uM preincubated for 30 mins followed by LPS addition measured after 24 hrs by ELISA relative to control; format: functional; details: for inhibition at 10 µM: C57BL/6, Peritoneal macrophage
[3] = test system: Peritoneal macrophage; assay: Anti-inflammatory activity in C57BL/6 mouse primary peritoneal macrophages assessed as inhibition of LPS-induced IL-6 secretion at 1 to 10 uM preincubated for 30 mins followed by LPS addition measured after 24 hrs by ELISA; format: functional, cell-based
[4] = test system: Peritoneal macrophage; assay: Anti-inflammatory activity in C57BL/6 mouse primary peritoneal macrophages assessed as inhibition of LPS-induced TNFalpha secretion at 1 to 10 uM preincubated for 30 mins followed by LPS addition measured after 24 hrs by ELISA; format: functional, cell-based
[5] = test system: Peritoneal macrophage; assay: Anti-inflammatory activity in C57BL/6 mouse primary peritoneal macrophages assessed as inhibition of LPS-induced TNFalpha secretion at 5 uM preincubated for 30 mins followed by LPS addition measured after 24 hrs by ELISA relative to control; format: functional; details: C57BL/6, Peritoneal macrophage
[6] = test system: Peritoneal macrophage; assay: Anti-inflammatory activity in C57BL/6 mouse primary peritoneal macrophages assessed as inhibition of LPS-induced IL-6 secretion at 2.5 uM preincubated for 30 mins followed by LPS addition measured after 24 hrs by ELISA relative to control; format: functional; details: C57BL/6, Peritoneal macrophage
[7] = Chemical stability in pH 7.4 phosphate buffer at 20 uM measured at 5 mins time intervals for 25 mins by UV absorbance spectroscopic method; format: physicochemical; details: pH 7.4, 25 min

Row | Structure (SMILES) | inhibition [1] | inhibition [2] | inhibition [3] | inhibition at 10 µM [1] | inhibition [4] | inhibition at 5 µM [5] | inhibition at 2.5 µM [6] | inhibition at 10 µM [2] | Stability [7]
1 | COc1cccc(/C=C2\COC/C(=C\c3cccc(OC)c3OC)C2=O)c1OC | Active | Active | – | – | – | – | – | – | –
2 | CCN1C/C(=C\c2ccc(F)cc2)C(=O)/C(=C/c2ccc(F)cc2)C1 | – | – | Active | > 80% | Active | > 50% | > 50% | > 80% | –
3 | O=C1/C(=C/c2ccccc2Br)COC/C1=C\c1ccccc1Br | inactive | inactive | – | – | – | – | – | – | –
4 | CN1C/C(=C\c2ccccc2Br)C(=O)/C(=C/c2ccccc2Br)C1 | – | – | Active | > 80% | Active | > 50% | > 50% | > 80% | Unstable
5 | COc1ccccc1/C=C1\COC/C(=C\c2ccccc2OC)C1=O | Active | Active | – | – | – | – | – | – | –
6 | O=C1/C(=C/c2cccc(O)c2)COC/C1=C\c1cccc(O)c1 | – | – | Active | > 80% | Active | > 50% | > 50% | > 80% | Stable
7 | COc1cc(/C=C/C(=O)CC(=O)/C=C/c2ccc(O)c(OC)c2)ccc1O [CURCUMIN] | Active | Active | – | – | – | – | – | – | Unstable
8 | COc1ccc(/C=C2\COC/C(=C\c3ccc(OC)cc3)C2=O)cc1 | inactive | inactive | – | – | – | – | – | – | –
9 | CCN1C/C(=C\c2cccc(OC)c2OC)C(=O)/C(=C/c2cccc(OC)c2OC)C1 | – | – | Active | > 80% | Active | > 50% | > 50% | > 80% | Stable
10 | COc1ccc(/C=C2\COC/C(=C\c3ccc(OC)c(OC)c3)C2=O)cc1OC | inactive | inactive | – | – | – | – | – | – | –
11 | COc1cc(/C=C2\CSC/C(=C\c3cc(OC)c(OC)c(OC)c3)C2=O)cc(OC)c1OC | – | – | – | 60% | – | – | – | 25% | –
